Series [1] relates to TPSO. The note with it: cited from earlier work.
Series [2] concerns TPSO. The following applies: cited from earlier work. The source holds these as a separate data set.
Series [3] in a line: Lipophilicity, log P estimated from HPLC retention times. The format is physicochemical. The note with it: pH 7.5. The text has this: The log P values were estimated by comparing HPLC retention times of test compounds with retention times of standards having known log P values as described.
The target of series [4] is T1, TSPO (Rattus norvegicus, UniProt P16257). The following applies: competing drug 1 mg/Kg i.v. 5 min prior to tracer; rats, 30 min p.i.; vs controls. As for the experimental part:
The saturation effect of [^123I]-CLINME uptake was studied in competition experiments by injecting CLINME (1 mg/Kg), 5 min prior to [^123I]-CLINME (0.7 MBq, 10 pmoles in 0.1 mL of 0.9% saline), via the tail vein, to 8–10-week-old male SD rats.
The drugs were dissolved in dimethyl sulfoxide/saline (1 : 5) and injected intravenously 5 min prior to [^123I]-CLINME. Groups of rats (n = 3-4) were sacrificed by CO2 administration followed by cervical fracture 30 min after administration of [^123I]-CLINME and peripheral organs (liver, spleen, lung, heart, kidney, and adrenals), blood, olfactory bulbs, and the remainder of the brain were removed. The radioactivity concentrations were calculated as described previously. Results were analysed by one-way analysis of variance (ANOVA) followed by Tukey's post hoc test for comparing the tissue radioactivity concentrations in the treated animals (n = 3-4) and in the controls (n = 6). The criterion for significance was P < 0.05.

The test system of series [5] is TPSO. The following applies: rats, dose of 5 mg/Kg; cited from earlier work.
Series [6] deals with T1, TSPO. The experiment in a line: In vitro autoradiography with [^125I]-CLINME on lesioned brain tissue. More on the design: from tissue; host or cells: male Sprague-Dawley rats: peripheral organs and brain in vivo; AMPA-lesioned striatum; brain sections. The note with it: 20 μM drug, 16 nM [^125I]-CLINME. In kind it is binding, SD rats.
The target in series [7] is central benzodiazepine receptor (CBR). The experiment in a line: In vitro binding assay, central benzodiazepine receptor. The note with it: membranes from kidney and brain cortex; read-out: inhibition constant for the CBR. How it is done:
(§1) […] (IC50) of CLINME for the TPSO and for the central benzodiazepine receptor (CBR) was determined as described previously. The IC50 values were converted to the inhibition constant, Ki, using Cheng-Prusoff equation.

For series [8], the target named is T1, TSPO. The experiment in a line: In vitro binding assay, TSPO, [^3H]-PK11195. Further details: from tissue. How it is done: as §1
The target in series [9] is T1, TSPO. As to the kind of experiment: In vitro binding assay, TSPO, [^3H]-Ro 5-4864. More on the design: from tissue. How it is done:
as §1

The target in series [10] is T1, TSPO. Further details: from tissue; method as in PMID 17680643. The following applies: same animal model; cited from earlier work.

The values that follow come from paper PMC4496498, “Radiosynthesis, In Vivo Biological Evaluation, and Imaging of Brain Lesions with [^123I]-CLINME, a New SPECT Tracer for the Translocator Protein” (Disease Markers, 2015).

Where two headings read alike, the source gives them in different places.

On to `CCN(CC)C(=O)Cc1c(-c2ccc(I)cc2)nc2ccc(Cl)cn12` [CLINDE], for which the “selectivity for the TPSO over the CBR” value in series [1] is 200 fold.
`COc1ccc(OCC[18F])c(CN(C(C)=O)c2cc(F)ccc2Oc2ccccc2)c1` [[^18F]FE-DAA1106]: the “ratio of uptake olfactory bulbs versus rest of brain” value in [2] is reported as 3.5.
As to `CCN(CC)C(=O)Cc1c(-c2ccc([123I])cc2)nc2ccc(Cl)cn12` [[^123I]-CLINDE], in series [2] (at 8 h), the “ratio of uptake olfactory bulbs versus rest of brain” value was 6.
Broadly, the chromatographic logP is lipophilicity estimated from chromatographic retention. Take `CCC(C)N(C)C(=O)c1cc2ccccc2c(-c2ccccc2Cl)n1` (centres unmarked) [PK11195]: the chromatographic logP in series [3] (HPLC retention times compared with standards of known log P) is 3.35. Also, in series [4], the “decrease of [^123I]-CLINME uptake in the heart” value stood at 87%, the “decrease of [^123I]-CLINME uptake in the kidney” value came out at 72%, the “decrease of [^123I]-CLINME uptake in the lungs” value stood at 81% and the “decrease of [^123I]-CLINME uptake in the olfactory bulbs” value turned out to be 36%. Besides, the “increase of [^123I]-CLINME uptake in the blood” value in series [4] was 29%. Besides, the “block of the uptake of [^123I]-PK11195 in the adrenals” value in [5] was 85%. In addition, the “effect of coincubation on the differential (lesioned vs contralateral) binding of [^125I]-CLINME” value in series [6] is reported as “eliminated”.
By melting point is commonly meant the temperature of the solid-liquid transition. Molecule `CCN(C)C(=O)Cc1c(-c2ccc(I)cc2)nc2ccc(Cl)cn12` [CLINME, 2-(6-Chloro-2-(4-iodophenyl)imidazo[1,2-a]pyridin-3-yl)-N-ethyl-N-methylacetamide] showed a melting point of 65 to 67 °C. In addition, the chromatographic logP in series [3] is 3.27. The Ki in [7] amounted to 183 ± 20 nM. Further, in series [4], the “decrease of [^123I]-CLINME uptake in the heart” value was determined as 86%, the “decrease of [^123I]-CLINME uptake in the kidney” value amounted to 71%, the “decrease of [^123I]-CLINME uptake in the lungs” value came out at 76% and the “decrease of [^123I]-CLINME uptake in the olfactory bulbs” value came to 38%. In series [4], the “increase of [^123I]-CLINME uptake in the blood” value was determined as 45%. Moreover, in series [8], the Ki worked out at 1.6 ± 0.2 nM. In addition, the “selectivity for the TPSO over the CBR” value in [8] (in vitro) worked out at 110 fold. The molecule also yielded a Ki in series [9] of 4.5 ± 0.6 nM. Further, the “effect of coincubation on the differential (lesioned vs contralateral) binding of [^125I]-CLINME” value in series [6] is given as “eliminated”.
With `CCCN(CCC)C(=O)Cc1c(-c2ccc(Cl)cc2)nc2ccc(Cl)cn12` [alpidem], the “selectivity for the TPSO over the CBR” value in series [1] was 20 fold.
For `CCN([11CH3])C(=O)Cc1c(-c2ccc(I)cc2)nc2ccc(Cl)cn12` [[^11C]-CLINME], the “ratio lesion versus contralateral striatum, PET” value in [10] is listed as 2.14 ± 0.09.
Regarding `CCC(C)N([11CH3])C(=O)c1cc2ccccc2c(-c2ccccc2Cl)n1` (centres unmarked) [[^11C]-PK11195], in [10], the “ratio lesion versus contralateral striatum, PET” value is recorded as 1.62 ± 0.05.
